Among the test systems are HT29 colon; NCI-H23 lung; OVCAR-8 ovarian; A549 NSCLC; SK-MEL-28 melanoma; ACHN renal; SW-620 colon; UACC-257 melanoma; EKVX NSCLC; HCT-15 colon; K-562 leukemia; MOLT-4 leukemia; SF-268 CNS; SN12C renal; OVCAR-3 ovarian; HCT-116 colon; M14 melanoma; HL-60(TB) leukemia; TK-10 renal; COLO 205 colon.
Experiment in all cases: NCI anticancer screen, dose series, 48 h

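Dose response: 5 concentrations. Exposure: 48 h. Format: 96-well plates. Endpoint: linear interpolation; highest concentration if not reached. TGI: concentration producing complete growth inhibition.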

Turning to `COc1cc(CNc2nc3cc(C(F)(F)F)ccc3nc2C)cc(OC)c1OC`, the TGI in the test on HT29 colon is 33.6 µM; in the test on NCI-H23 lung, 76.1 µM; in the test with OVCAR-8 ovarian it was more than 100 µM; in the test on A549 NSCLC it was more than 100 µM; in the test with SK-MEL-28 melanoma it was 65 µM; in the test with ACHN renal, 38.1 µM. In addition, the TGI in the test with SW-620 colon amounted to 33.6 µM; with UACC-257 melanoma, 37.9 µM; in the test with EKVX NSCLC, 67.4 µM; in the test with HCT-15 colon, 32.8 µM; with K-562 leukemia, 73.9 µM; in the test on MOLT-4 leukemia it was 50.7 µM. Also, the TGI in the test on SF-268 CNS is more than 100 µM; in the test on SN12C renal, 30.8 µM; in the test on OVCAR-3 ovarian, more than 100 µM; with HCT-116 colon, 72.2 µM; in the test on M14 melanoma it was 30.8 µM; in the test on HL-60(TB) leukemia it was 51.9 µM. Besides, the TGI in the test with TK-10 renal was found to be 42.6 µM; with COLO 205 colon it was 30.2 µM.

With `c1ccc(Nc2nnc(-c3nsc4ccccc34)o2)cc1`, the TGI in the test on HT29 colon, in the test with NCI-H23 lung, in the test with OVCAR-8 ovarian, with A549 NSCLC, in the test with SK-MEL-28 melanoma and in the test on ACHN renal was more than 100 µM in each case. Besides, the TGI with SW-620 colon, with UACC-257 melanoma, with EKVX NSCLC, with HCT-15 colon, in the test on K-562 leukemia and in the test on MOLT-4 leukemia was more than 100 µM in each case. The TGI with SF-268 CNS was more than 100 µM; in the test with SN12C renal, more than 100 µM; with OVCAR-3 ovarian, 45.2 µM; in the test with HCT-116 colon, more than 100 µM; in the test on M14 melanoma, more than 100 µM; in the test with HL-60(TB) leukemia it was more than 100 µM. In addition, the TGI in the test with TK-10 renal and in the test with COLO 205 colon was more than 100 µM throughout.

The values are drawn from PubChem BioAssay (NCI).
